Test results published in patent publication US20090170886A1 (Pfizer Inc, priority 2005, published 2009).
Changes are numbered by the printed parent chain. Read-outs that look alike come from different tables or passages of the source.

Tests used:
[1] = target: T1, hAR (human androgen receptor, baculovirus/Sf9 generated extracts) (Homo sapiens, UniProt P10275); assay: AR Binding Assay (competitive binding with 3H-DHT tracer); conditions: 1 nM 3H-DHT, one hour at 4° C., mean of multiple tests
T1 construct: made in house; host or cells: baculovirus/Sf9 insect cells (crude extract)
T1 sequence (P10275 1-920): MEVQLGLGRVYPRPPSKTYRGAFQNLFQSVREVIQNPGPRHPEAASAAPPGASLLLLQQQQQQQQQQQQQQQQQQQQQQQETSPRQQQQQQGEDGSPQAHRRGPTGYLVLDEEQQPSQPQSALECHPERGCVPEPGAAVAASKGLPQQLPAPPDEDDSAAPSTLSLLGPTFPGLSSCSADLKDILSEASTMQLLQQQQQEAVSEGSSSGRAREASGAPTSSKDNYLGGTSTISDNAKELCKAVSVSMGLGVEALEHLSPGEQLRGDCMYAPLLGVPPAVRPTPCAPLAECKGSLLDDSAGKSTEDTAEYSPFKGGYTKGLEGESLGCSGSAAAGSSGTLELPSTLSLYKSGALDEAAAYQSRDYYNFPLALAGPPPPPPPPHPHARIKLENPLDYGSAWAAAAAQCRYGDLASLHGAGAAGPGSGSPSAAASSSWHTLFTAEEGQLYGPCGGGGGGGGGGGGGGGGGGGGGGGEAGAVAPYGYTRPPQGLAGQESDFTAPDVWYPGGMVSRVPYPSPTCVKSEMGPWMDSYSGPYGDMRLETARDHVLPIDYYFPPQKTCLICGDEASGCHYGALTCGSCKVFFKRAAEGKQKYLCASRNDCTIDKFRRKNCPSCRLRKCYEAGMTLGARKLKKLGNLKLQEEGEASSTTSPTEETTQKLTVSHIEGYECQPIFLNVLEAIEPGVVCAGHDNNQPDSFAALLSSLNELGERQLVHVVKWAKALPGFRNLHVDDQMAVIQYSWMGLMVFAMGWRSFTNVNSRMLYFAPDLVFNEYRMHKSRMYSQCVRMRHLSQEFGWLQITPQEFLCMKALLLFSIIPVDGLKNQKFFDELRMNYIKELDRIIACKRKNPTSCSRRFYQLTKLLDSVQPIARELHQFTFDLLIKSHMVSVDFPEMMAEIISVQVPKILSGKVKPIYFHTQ
Method in brief: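 Compounds at decreasing concentrations were incubated with baculovirus/Sf9 hAR extract, hydroxylapatite and 1 nM ^3H-DHT for one hour at 4° C., then washed three times. The value is the compound concentration inhibiting half of maximum ^3H-DHT binding, reported as the mean of multiple tests.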

[2] = tested on: spinal BMD; conditions: after 7 years of treatment; cited from earlier work
[3] = target: T2, androgen receptor in MDA-MB453-MMTV clone 54-19 cells (Homo sapiens, UniProt P10275); assay: AR Antagonist Cell Assay (MMTV-luciferase reporter, DHT-induced); assay type: cell-based; conditions: MDA-MB453-MMTV clone 54-19, 100 pM DHT, 17 hr; mean of multiple tests
T2 sequence (P10275 1-920 Q868H): T1 sequence (P10275 1-920) with Q868H
Method in brief: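 MDA-MB453 cells stably carrying an ARE-containing MMTV-luciferase reporter, in phenol red-free medium with 1% charcoal-treated serum, preincubated 30 min with compound (0.32-1000 nM), then stimulated with 100 pM DHT for 17 h at 37 °C. Luminescence read; percent inhibition of DHT fold induction.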

[4] = hAR extract, read-out: AR Binding IC50

With `Cc1cccc(COc2ccc(C#N)cc2Cl)c1` [Example 40, 3-Chloro-4-(3-methyl-benzyloxy)-benzonitrile] the melting point was 73 to 75 °C and the IC50 [1, 4] was 783 nM.
In the case of `NCCCC(O)(P(=O)(O)O)P(=O)(O)O` [alendronate], the “increase in spinal BMD” value [2] is given as no more than 11%.
With `COc1cc(OCCc2cccc(F)c2)ccc1C#N` [Example 71B, 4-[2-(3-Fluoro-phenyl)-ethoxy]-2-methoxy-benzonitrile] the IC50 [3] was 41.4 nM and the IC50 [1, 4] was 155 nM.
In the case of `CCC(Oc1ccc(C#N)c(C(F)(F)F)c1)c1cccc(O)c1` (single isomer, unassigned; (-)) [Example 13, (−)4-[1-(3-Hydroxyphenyl)propoxy]-2-(trifluoromethyl)benzonitrile], the IC50 [3] is reported as 31 nM and the IC50 ([1]; AR Binding IC50, hAR extract) is reported as 23 nM.
`N#Cc1ccc(OCc2cccc(O)c2)c(Cl)c1` [Example 41, 3-Chloro-4-(3-hydroxy-benzyloxy)-benzonitrile] gave an IC50 [3] of 286 nM and an IC50 [1, 4] of 76 nM.
`COc1ccccc1COc1ccc(C#N)c(Cl)c1` [Example 67, 2-Chloro-4-(2-methoxy-benzyloxy)-benzonitrile] showed an IC50 [3] of 166 nM and an IC50 ([1]; AR Binding IC50, hAR extract) of 99 nM.
With `CC(Oc1ccc(C#N)c(C(F)(F)F)c1)c1cccnc1` (single isomer, unassigned) [Example 34, 4-(1-Pyridin-3-yl-ethoxy)-2-trifluoromethyl-benzonitrile] the IC50 [3] was 94 nM and the IC50 ([1]; AR Binding IC50, hAR extract) was 141 nM.
Compound `CCCC(Oc1ccc(C#N)c(C(F)(F)F)c1)c1cncc(O)c1` (stereo not shown) [Example 95, 4-[1-(5-Hydroxy-pyridin-3-yl)-butoxy]-2-trifluoromethyl-benzonitrile] has an IC50 [3] of 37 nM and an IC50 ([1]; AR Binding IC50, hAR extract) of 68 nM.
`CC(C)CC(Oc1ccc(C#N)c(C(F)(F)F)c1)c1cccc(O)c1` (racemic) [Example 20, 4-[1-(3-Hydroxyphenyl)-3-methylbutoxy]-2-(trifluoromethyl)benzonitrile] showed an IC50 [3] of 40 nM and an IC50 ([1]; AR Binding IC50, hAR extract) of 183 nM.
Compound `CC(Oc1ccc(C#N)c(C(F)(F)F)c1)c1ccccc1F` (stereo not shown) [Example 24, 4-[1-(2-Fluoro-phenyl)-ethoxy]-2-trifluoromethyl-benzonitrile] has an IC50 [3] of 826 nM and an IC50 ([1]; AR Binding IC50, hAR extract) of 79 nM.
Compound `CC(C)(Oc1ccc(C#N)c(Cl)c1)c1ccccc1` [Example 70, 2-Chloro-4-(1-methyl-1-phenyl-ethoxy)-benzonitrile] has an IC50 [3] greater than 1000 nM and an IC50 ([1]; AR Binding IC50, hAR extract) of 53 nM.
In the case of `CC(Oc1ccc(C#N)c(C(F)(F)F)c1)c1cccc(O)c1` (single isomer, unassigned; (+)) [Example 10, (+)-4-[1-(3-Hydroxyphenyl)ethoxy]-2-(trifluoromethyl)benzonitrile], the IC50 [3] is reported as no less than 1000 nM and the IC50 ([1]; AR Binding IC50, hAR extract) is reported as 3 nM.
Compound `COc1cncc(C(C)Oc2ccc(C#N)c(C(F)(F)F)c2)c1` (stereo not shown) [Example 72, 4-[1-(5-Methoxypyridin-3-yl)ethoxy]-2-(trifluoromethyl)benzonitrile] has an IC50 [3] of 441 nM and an IC50 [1, 4] of 203 nM.
